{"source": "patent US20250026708A1", "about": "“PROCESS FOR PREPARATION OF TRIHEPTANOIN” (Navinta, LLC, priority 2023, published 2025)", "experiment": "Stability study of triheptanoin on storage (acid value, diester impurities, purity by GC and/or HPLC)", "format": "physicochemical", "experimental": "The stability data of the present invention at different stability condition(s) from initial to up to 6 (six) months is described below in Table-I: As shown in Table-I, two batches (Example 16 & Example 17) of triheptanoin prepared by the present method with acid values of […] about 0.2 mg KOH/gm were studied for stability. The samples were kept at 25° C./60% RH, 40° C./75% RH for up to 6 months and at 50° C. for up to 3 months. During the stability study, the inventors of the present invention have focused on % of 1,2-Diester Impurity, % of 1,3-Diester Impurity and purity of triheptanoin.", "key": {"[1]": {"settings": "25° C./60% RH, 3 M, listed as Example 17"}, "[2]": {"settings": "25° C./60% RH, 6 M, listed as Example 17"}, "[3]": {"settings": "25° C./60% RH, 40° C./75% RH up to 6 months, 50° C. up to 3 months, acid value greater than about 0.2 mg KOH/gm"}, "[4]": {"settings": "40° C./75% RH, 1 M, listed as Example 17"}, "[5]": {"settings": "40° C./75% RH, 2 M, listed as Example 17"}, "[6]": {"settings": "40° C./75% RH, 3 M, listed as Example 17"}, "[7]": {"settings": "40° C./75% RH, 6 M, listed as Example 17"}, "[8]": {"settings": "50° C., 1 M, listed as Example 17"}, "[9]": {"settings": "50° C., 2 M, listed as Example 17"}, "[10]": {"settings": "50° C., 3 M, listed as Example 17"}}, "data": [{"smiles": "CCCCCCC(=O)OCC(COC(=O)CCCCCC)OC(=O)CCCCCC", "note": "[Example 16, heptanoic acid, 1,1′,1″-(1,2,3 propanetriyl) ester]", "values": [{"measurement": "1,2 Diester Impurity (NMT 0.05%)", "setting": "25° C./60% RH, 1 M", "result": 0.004, "unit": "%"}, {"measurement": "1,3 Diester Impurity (NMT 0.05%)", "setting": "25° C./60% RH, 1 M", "result": 0.002, "unit": "%"}, {"measurement": "Acid value", "setting": "25° C./60% RH, 1 M", "result": 0.24, "unit": "mg KOH/gm"}, {"measurement": "Triheptanoin purity", "setting": "25° C./60% RH, 1 M", "result": 99.83, "unit": "%"}, {"measurement": "Triheptanoin purity", "setting": "25° C./60% RH, 1 M, listed as Example 17", "result": 99.82, "unit": "%"}, {"measurement": "1,2 Diester Impurity (NMT 0.05%)", "setting": "25° C./60% RH, 3 M", "result": 0.007, "unit": "%"}, {"measurement": "1,3 Diester Impurity (NMT 0.05%)", "setting": "25° C./60% RH, 3 M", "result": 0.002, "unit": "%"}, {"measurement": "Acid value", "setting": "25° C./60% RH, 3 M", "result": 0.23, "unit": "mg KOH/gm"}, {"measurement": "Triheptanoin purity", "setting": "25° C./60% RH, 3 M", "result": 99.82, "unit": "%"}, {"measurement": "1,2 Diester Impurity (NMT 0.05%)", "setting": "[1]", "result": 0.004, "unit": "%"}, {"measurement": "1,3 Diester Impurity (NMT 0.05%)", "setting": "[1]", "result": 0.003, "unit": "%"}, {"measurement": "Acid value", "setting": "[1]", "result": 0.22, "unit": "mg KOH/gm"}, {"measurement": "Triheptanoin purity", "setting": "[1]", "result": 99.84, "unit": "%"}, {"measurement": "1,2 Diester Impurity (NMT 0.05%)", "setting": "25° C./60% RH, 6 M", "result": 0.005, "unit": "%"}, {"measurement": "1,3 Diester Impurity (NMT 0.05%)", "setting": "25° C./60% RH, 6 M", "result": 0.009, "unit": "%"}, {"measurement": "Acid value", "setting": "25° C./60% RH, 6 M", "result": 0.27, "unit": "mg KOH/gm"}, {"measurement": "Triheptanoin purity", "setting": "25° C./60% RH, 6 M", "result": 99.81, "unit": "%"}, {"measurement": "1,2 Diester Impurity (NMT 0.05%)", "setting": "[2]", "result": 0.003, "unit": "%"}, {"measurement": "1,3 Diester Impurity (NMT 0.05%)", "setting": "[2]", "result": 0.004, "unit": "%"}, {"measurement": "Triheptanoin purity", "setting": "[2]", "result": 99.82, "unit": "%"}, {"measurement": "1,2-Diester and 1,3-Diester impurities during the storage", "setting": "[3]", "result": "not increasing"}, {"measurement": "assay potency of triheptanoin during the storage", "setting": "[3]", "result": "maintained"}, {"measurement": "purity of triheptanoin during storage as measured by GC and/or HPLC", "setting": "[3]", "result": "greater than 99.7%"}, {"measurement": "1,2 Diester Impurity (NMT 0.05%)", "setting": "40° C./75% RH, 1 M", "result": 0.005, "unit": "%"}, {"measurement": "1,3 Diester Impurity (NMT 0.05%)", "setting": "40° C./75% RH, 1 M", "result": 0.003, "unit": "%"}, {"measurement": "Acid value", "setting": "40° C./75% RH, 1 M", "result": 0.24, "unit": "mg KOH/gm"}, {"measurement": "Triheptanoin purity", "setting": "40° C./75% RH, 1 M", "result": 99.83, "unit": "%"}, {"measurement": "1,2 Diester Impurity (NMT 0.05%)", "setting": "[4]", "result": 0.004, "unit": "%"}, {"measurement": "1,3 Diester Impurity (NMT 0.05%)", "setting": "[4]", "result": 0.004, "unit": "%"}, {"measurement": "Triheptanoin purity", "setting": "[4]", "result": 99.82, "unit": "%"}, {"measurement": "1,2 Diester Impurity (NMT 0.05%)", "setting": "40° C./75% RH, 2 M", "result": 0.008, "unit": "%"}, {"measurement": "1,3 Diester Impurity (NMT 0.05%)", "setting": "40° C./75% RH, 2 M", "result": 0.005, "unit": "%"}, {"measurement": "Acid value", "setting": "40° C./75% RH, 2 M", "result": 0.24, "unit": "mg KOH/gm"}, {"measurement": "Triheptanoin purity", "setting": "40° C./75% RH, 2 M", "result": 99.78, "unit": "%"}, {"measurement": "1,2 Diester Impurity (NMT 0.05%)", "setting": "[5]", "result": 0.006, "unit": "%"}, {"measurement": "1,3 Diester Impurity (NMT 0.05%)", "setting": "[5]", "result": 0.003, "unit": "%"}, {"measurement": "Acid value", "setting": "[5]", "result": 0.25, "unit": "mg KOH/gm"}, {"measurement": "Triheptanoin purity", "setting": "[5]", "result": 99.81, "unit": "%"}, {"measurement": "1,2 Diester Impurity (NMT 0.05%)", "setting": "40° C./75% RH, 3 M", "result": 0.013, "unit": "%"}, {"measurement": "1,3 Diester Impurity (NMT 0.05%)", "setting": "40° C./75% RH, 3 M", "result": 0.007, "unit": "%"}, {"measurement": "Acid value", "setting": "40° C./75% RH, 3 M", "result": 0.24, "unit": "mg KOH/gm"}, {"measurement": "Triheptanoin purity", "setting": "40° C./75% RH, 3 M", "result": 99.82, "unit": "%"}, {"measurement": "1,2 Diester Impurity (NMT 0.05%)", "setting": "[6]", "result": 0.006, "unit": "%"}, {"measurement": "1,3 Diester Impurity (NMT 0.05%)", "setting": "[6]", "result": 0.005, "unit": "%"}, {"measurement": "Acid value", "setting": "[6]", "result": 0.23, "unit": "mg KOH/gm"}, {"measurement": "1,2 Diester Impurity (NMT 0.05%)", "setting": "40° C./75% RH, 6 M", "result": 0.018, "unit": "%"}, {"measurement": "1,3 Diester Impurity (NMT 0.05%)", "setting": "40° C./75% RH, 6 M", "result": 0.015, "unit": "%"}, {"measurement": "Acid value", "setting": "40° C./75% RH, 6 M", "result": 0.26, "unit": "mg KOH/gm"}, {"measurement": "Triheptanoin purity", "setting": "40° C./75% RH, 6 M", "result": 99.74, "unit": "%"}, {"measurement": "1,2 Diester Impurity (NMT 0.05%)", "setting": "[7]", "result": 0.011, "unit": "%"}, {"measurement": "1,3 Diester Impurity (NMT 0.05%)", "setting": "[7]", "result": 0.014, "unit": "%"}, {"measurement": "Acid value", "setting": "[7]", "result": 0.29, "unit": "mg KOH/gm"}, {"measurement": "Triheptanoin purity", "setting": "[7]", "result": 99.81, "unit": "%"}, {"measurement": "1,2 Diester Impurity (NMT 0.05%)", "setting": "50° C., 1 M", "result": 0.008, "unit": "%"}, {"measurement": "1,3 Diester Impurity (NMT 0.05%)", "setting": "50° C., 1 M", "result": 0.005, "unit": "%"}, {"measurement": "Acid value", "setting": "50° C., 1 M", "result": 0.24, "unit": "mg KOH/gm"}, {"measurement": "Triheptanoin purity", "setting": "50° C., 1 M", "result": 99.83, "unit": "%"}, {"measurement": "1,2 Diester Impurity (NMT 0.05%)", "setting": "[8]", "result": 0.005, "unit": "%"}, {"measurement": "1,3 Diester Impurity (NMT 0.05%)", "setting": "[8]", "result": 0.004, "unit": "%"}, {"measurement": "Triheptanoin purity", "setting": "[8]", "result": 99.81, "unit": "%"}, {"measurement": "1,2 Diester Impurity (NMT 0.05%)", "setting": "50° C., 2 M", "result": 0.014, "unit": "%"}, {"measurement": "1,3 Diester Impurity (NMT 0.05%)", "setting": "50° C., 2 M", "result": 0.010, "unit": "%"}, {"measurement": "Acid value", "setting": "50° C., 2 M", "result": 0.24, "unit": "mg KOH/gm"}, {"measurement": "Triheptanoin purity", "setting": "50° C., 2 M", "result": 99.76, "unit": "%"}, {"measurement": "1,2 Diester Impurity (NMT 0.05%)", "setting": "[9]", "result": 0.008, "unit": "%"}, {"measurement": "1,3 Diester Impurity (NMT 0.05%)", "setting": "[9]", "result": 0.007, "unit": "%"}, {"measurement": "Acid value", "setting": "[9]", "result": 0.25, "unit": "mg KOH/gm"}, {"measurement": "Triheptanoin purity", "setting": "[9]", "result": 99.78, "unit": "%"}, {"measurement": "1,2 Diester Impurity (NMT 0.05%)", "setting": "50° C., 3 M", "result": 0.014, "unit": "%"}, {"measurement": "1,3 Diester Impurity (NMT 0.05%)", "setting": "50° C., 3 M", "result": 0.012, "unit": "%"}, {"measurement": "Acid value", "setting": "50° C., 3 M", "result": 0.25, "unit": "mg KOH/gm"}, {"measurement": "Triheptanoin purity", "setting": "50° C., 3 M", "result": 99.80, "unit": "%"}, {"measurement": "1,2 Diester Impurity (NMT 0.05%)", "setting": "[10]", "result": 0.010, "unit": "%"}, {"measurement": "1,3 Diester Impurity (NMT 0.05%)", "setting": "[10]", "result": 0.010, "unit": "%"}, {"measurement": "Acid value", "setting": "[10]", "result": 0.24, "unit": "mg KOH/gm"}, {"measurement": "Triheptanoin purity", "setting": "[10]", "result": 99.83, "unit": "%"}, {"measurement": "1,2 Diester Impurity (NMT 0.05%)", "setting": "Initial", "result": 0.004, "unit": "%"}, {"measurement": "1,3 Diester Impurity (NMT 0.05%)", "setting": "Initial", "result": 0.002, "unit": "%"}, {"measurement": "Acid value", "setting": "Initial", "result": 0.21, "unit": "mg KOH/gm"}, {"measurement": "Triheptanoin purity", "setting": "Initial", "result": 99.76, "unit": "%"}, {"measurement": "1,2 Diester Impurity (NMT 0.05%)", "setting": "Initial, listed as Example 17", "result": 0.003, "unit": "%"}, {"measurement": "Triheptanoin purity", "setting": "Initial, listed as Example 17", "result": 99.77, "unit": "%"}]}]}
